# Assays:
# BxPC-3 pancreatic tumors = assay: NIR fluorescence imaging, BxPC-3 pancreatic tumors; type: in vivo, mice; conditions: all three dose groups (1.0, 10, 30 nmol), FLARE and Pearl, skin as background
# Description: To induce subcutaneous tumors, colorectal cancer cells (HT-29) were injected at 4 sites on the back (500,000 cells per spot). Subsequently, these colorectal tumor cells were transplanted on the colon of other mice, as described by Tseng et al.. Approximately 500,000 pancreatic tumor cells (BxPC-3) were injected into the pancreas, as previously described by Kim et al.. Approximately 40,000 oral tumor cells (OSC-19) were injected in the tongue, as previously described by van Driel et al.. Approximately 500,000 breast tumor cells (MCF-7) were injected in both sides of the mammary fat pad to induce breast cancer tumors.
# All animals were imaged using a Pearl® imager (LI-COR, Lincoln, NE) and an original FLARE® prototype. Animals with HT-29 tumors were imaged at 4 and 24 h post injection; animals with BxPC-3 and OSC-19 tumors at 4 h only. Animals with MCF-7 tumors were imaged at 0.5, 1, 2, 4, 6, 8, 24 and 48 h post injection. […] TBRs were calculated by dividing the tumor signal by the background signal. […]
# Mice were administered with 0.25 (HT-29 model only), 1.0, 10, or 30 nmol cRGD-ZW800-1 to evaluate tumor signals, biodistribution, and to calculate TBRs (n = 3 per dose group). At 4 h (BxPC-3 model) and 24 h (HT-29 model) after injection, mice were fully dissected and fluorescence intensity of their organs was measured.
# [1] = biological target: T1, lymphocyte-specific protein tyrosine kinase (LCK) (Homo sapiens, UniProt P06239); assay: Off-target screening (Eurofins Cerep), Lck kinase; type: biochemical
# T1 construct: Eurofins Cerep SA (contract screen)
# T1 sequence (P06239 whole entry): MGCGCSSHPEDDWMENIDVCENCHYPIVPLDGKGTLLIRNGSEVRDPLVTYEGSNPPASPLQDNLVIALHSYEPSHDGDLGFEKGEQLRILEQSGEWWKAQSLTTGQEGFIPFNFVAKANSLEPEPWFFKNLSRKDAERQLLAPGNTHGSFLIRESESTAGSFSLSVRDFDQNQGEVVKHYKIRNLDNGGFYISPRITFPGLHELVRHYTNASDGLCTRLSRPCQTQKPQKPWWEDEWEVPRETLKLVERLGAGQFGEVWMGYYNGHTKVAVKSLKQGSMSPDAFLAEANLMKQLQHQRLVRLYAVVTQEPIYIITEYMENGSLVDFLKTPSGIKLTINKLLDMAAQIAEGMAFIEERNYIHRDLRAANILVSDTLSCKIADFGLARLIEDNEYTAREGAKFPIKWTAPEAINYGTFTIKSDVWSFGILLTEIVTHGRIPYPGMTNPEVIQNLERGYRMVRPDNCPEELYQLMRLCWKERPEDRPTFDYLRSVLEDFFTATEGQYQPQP
# Muscarinic M3 = biological target: T2, Muscarinic M3 (Homo sapiens, UniProt P20309); assay: Off-target screening (Eurofins Cerep), M3; type: binding
# T2 construct: Eurofins Cerep SA (contract screening)
# Potassium Channel hERG = Potassium Channel hERG (Homo sapiens, UniProt Q12809)
# Sequence of Potassium Channel hERG (Q12809 whole entry): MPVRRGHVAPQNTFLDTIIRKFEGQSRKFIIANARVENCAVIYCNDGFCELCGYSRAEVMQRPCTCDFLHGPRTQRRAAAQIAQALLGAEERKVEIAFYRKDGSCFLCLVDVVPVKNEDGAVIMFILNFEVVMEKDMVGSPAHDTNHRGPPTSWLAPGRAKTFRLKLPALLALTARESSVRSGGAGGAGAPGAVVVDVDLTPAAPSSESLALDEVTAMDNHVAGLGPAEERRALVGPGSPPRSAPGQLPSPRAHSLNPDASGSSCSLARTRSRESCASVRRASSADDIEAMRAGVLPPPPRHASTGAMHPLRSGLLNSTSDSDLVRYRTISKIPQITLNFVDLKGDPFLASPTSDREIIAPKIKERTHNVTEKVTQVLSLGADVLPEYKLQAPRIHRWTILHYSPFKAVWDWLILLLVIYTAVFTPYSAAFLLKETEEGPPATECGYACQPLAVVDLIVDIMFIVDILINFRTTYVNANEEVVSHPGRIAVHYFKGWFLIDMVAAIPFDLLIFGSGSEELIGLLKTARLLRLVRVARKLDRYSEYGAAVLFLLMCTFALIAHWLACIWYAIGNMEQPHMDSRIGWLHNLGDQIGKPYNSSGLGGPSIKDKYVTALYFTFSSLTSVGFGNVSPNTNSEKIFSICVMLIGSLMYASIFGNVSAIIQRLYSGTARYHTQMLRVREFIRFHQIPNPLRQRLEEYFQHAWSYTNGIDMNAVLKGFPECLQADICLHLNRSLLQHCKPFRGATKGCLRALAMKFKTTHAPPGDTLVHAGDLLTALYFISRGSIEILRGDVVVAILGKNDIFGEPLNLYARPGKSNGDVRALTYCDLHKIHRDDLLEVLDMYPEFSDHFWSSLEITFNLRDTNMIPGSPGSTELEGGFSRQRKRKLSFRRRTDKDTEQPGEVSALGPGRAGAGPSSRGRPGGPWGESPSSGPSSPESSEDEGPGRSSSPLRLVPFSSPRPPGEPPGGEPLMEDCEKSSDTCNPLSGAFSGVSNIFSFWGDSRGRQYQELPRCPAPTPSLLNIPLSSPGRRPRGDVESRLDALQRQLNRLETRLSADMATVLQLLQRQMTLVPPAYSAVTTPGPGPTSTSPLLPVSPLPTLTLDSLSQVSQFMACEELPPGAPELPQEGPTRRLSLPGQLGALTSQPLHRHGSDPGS
# PDE4D2 = biological target: T3, PDE4D2 (Homo sapiens, UniProt Q08499); assay: Off-target screening (Eurofins Cerep), PDE4D2; type: biochemical
# T3 construct: Eurofins Cerep SA (contract screen)
# U-87 MG cells = assay: In vitro competition with unlabeled cRGD, U-87 MG; type: cell-based, human; conditions: 500 nM cRGD-ZW800-1 + 500 nM unlabeled cRGD (1:1), 37°C, 2 h, vs cells without unlabeled cRGD, triplicate, p = 0.02
# Description: For in vitro competition, U-87 MG (αvβ3 and αvβ5 positive, αvβ6 negative) and HT-29 (αvβ3 negative, αvβ5 and αvβ6 positive) cells were plated in a 96-well plate at a density of ∼40,000 and ∼60,000 cells per well, respectively. Subsequently, 500 nM of cRGD-ZW800-1 was simultaneously added to the cells and incubated at 37°C for 2 h. At the same time, half of the cells were also incubated with 500 nM unlabeled (“cold”) cRGD.
# Both the cells in the binding and the competition experiment were then washed twice and imaged with the Odyssey NIR scanner (LI-COR Biosciences, Lincoln, Nebraska: focus offset 3 mm; 800-nm channel). Next, cells were permeabilized with a 40/60 mixture of acetone and methanol followed by a washing step and a 5 min incubation with ToPro3 (1/2000, Invitrogen), a far red fluorescent dye (642/661nm). The wells were then washed and again imaged with the Odyssey scanner (focus offset 3 mm; 700-nm channel) to quantify the number of cells in each well. The experiments were performed in triplicate.
# Opioid µ (MOP) = biological target: T4, Opioid µ (MOP) (Homo sapiens, UniProt P35372); assay: Off-target screening (Eurofins Cerep), µ (MOP); type: binding
# T4 construct: Eurofins Cerep SA (contract screening)
# T4 sequence (P35372 whole entry): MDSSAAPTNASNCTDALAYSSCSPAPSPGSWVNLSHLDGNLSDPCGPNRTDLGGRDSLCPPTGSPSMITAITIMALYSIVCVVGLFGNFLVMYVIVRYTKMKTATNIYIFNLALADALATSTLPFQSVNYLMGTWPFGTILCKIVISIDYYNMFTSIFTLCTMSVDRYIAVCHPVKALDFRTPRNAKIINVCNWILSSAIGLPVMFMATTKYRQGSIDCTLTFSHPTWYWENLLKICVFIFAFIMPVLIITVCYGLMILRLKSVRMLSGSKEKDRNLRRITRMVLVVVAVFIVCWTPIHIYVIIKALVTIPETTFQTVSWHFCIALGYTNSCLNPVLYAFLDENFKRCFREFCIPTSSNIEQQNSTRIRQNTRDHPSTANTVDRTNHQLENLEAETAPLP
# Endothelin ETA = biological target: T5, Endothelin ETA (Homo sapiens, UniProt P25101); assay: Off-target screening (Eurofins Cerep), ETA; type: binding
# T5 construct: Eurofins Cerep SA (contract screening)
# T5 sequence (P25101 21-427): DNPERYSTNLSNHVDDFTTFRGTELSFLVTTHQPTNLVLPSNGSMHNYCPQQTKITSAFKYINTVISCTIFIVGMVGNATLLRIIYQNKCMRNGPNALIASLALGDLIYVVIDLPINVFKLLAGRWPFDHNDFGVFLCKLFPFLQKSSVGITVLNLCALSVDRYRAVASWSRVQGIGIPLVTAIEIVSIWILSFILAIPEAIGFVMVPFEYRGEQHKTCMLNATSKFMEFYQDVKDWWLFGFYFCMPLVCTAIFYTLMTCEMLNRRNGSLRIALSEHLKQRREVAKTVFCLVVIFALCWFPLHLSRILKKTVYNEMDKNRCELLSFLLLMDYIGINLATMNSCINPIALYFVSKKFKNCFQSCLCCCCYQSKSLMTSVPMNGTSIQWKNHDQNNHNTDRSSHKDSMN
# [2] = biological target: T6, 5-hydroxytryptamine (serotonin) receptor 2B (5-HT2B) (Homo sapiens, UniProt P41595); assay: Off-target screening (Eurofins Cerep), 5-HT2B; type: binding
# T6 construct: Eurofins Cerep SA (contract screening)
# T6 sequence (P41595 whole entry): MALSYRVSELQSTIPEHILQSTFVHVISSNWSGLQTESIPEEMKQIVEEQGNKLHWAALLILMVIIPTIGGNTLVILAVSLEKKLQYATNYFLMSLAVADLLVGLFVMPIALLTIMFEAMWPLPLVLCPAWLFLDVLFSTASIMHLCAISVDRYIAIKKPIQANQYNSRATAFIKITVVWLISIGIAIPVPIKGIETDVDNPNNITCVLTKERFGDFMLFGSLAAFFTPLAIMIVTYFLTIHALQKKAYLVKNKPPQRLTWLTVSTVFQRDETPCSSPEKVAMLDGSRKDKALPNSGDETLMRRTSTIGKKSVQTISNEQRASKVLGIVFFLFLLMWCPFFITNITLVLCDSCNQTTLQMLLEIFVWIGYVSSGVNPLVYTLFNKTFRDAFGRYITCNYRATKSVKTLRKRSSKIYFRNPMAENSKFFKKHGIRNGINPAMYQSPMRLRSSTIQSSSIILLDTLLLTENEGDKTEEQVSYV
# Description: (§1) Off-target interactions are binding of tracers to other components on the cell surface than the actual target site. These non-specific interactions are often of low affinity and easily missed, but can have significant effects. We outsourced the screening for in vitro for off-target interactions of cRGD-ZW800-1 to Eurofins Cerep SA, Le bois l’Evêque, France. They assessed the percentage of inhibition of a reference compound in 44 selected targets, including G protein-coupled receptors (GPCRs), transporters, ion channels, nuclear receptors, kinases and other non-kinase enzymes. These targets were recommended by four major pharmaceutical companies. The complete list is included in Supplementary Table 1 of the Supplementary Data. Each assay was performed twice using 10 μM cRGD-ZW800-1 and a reference compound. Inhibition higher than 50% was considered to represent a significant effect of cRGD-ZW800-1. Results showing between 20% and 50% were considered weak to moderate effects, while lower than 20% was not considered significant and mostly attributable to variability of the signal around the control level.
# tumors = assay: Estimated concentration inside tumors in humans; conditions: after administering 63 μg/kg, assuming tumor uptake comparable to RGD-PET tracer
# Serotonin 5-HT1A = biological target: T7, Serotonin 5-HT1A (Homo sapiens, UniProt P08908); assay: Off-target screening (Eurofins Cerep), 5-HT1A; type: binding
# T7 construct: Eurofins Cerep SA (contract screening)
# T7 sequence (P08908 whole entry): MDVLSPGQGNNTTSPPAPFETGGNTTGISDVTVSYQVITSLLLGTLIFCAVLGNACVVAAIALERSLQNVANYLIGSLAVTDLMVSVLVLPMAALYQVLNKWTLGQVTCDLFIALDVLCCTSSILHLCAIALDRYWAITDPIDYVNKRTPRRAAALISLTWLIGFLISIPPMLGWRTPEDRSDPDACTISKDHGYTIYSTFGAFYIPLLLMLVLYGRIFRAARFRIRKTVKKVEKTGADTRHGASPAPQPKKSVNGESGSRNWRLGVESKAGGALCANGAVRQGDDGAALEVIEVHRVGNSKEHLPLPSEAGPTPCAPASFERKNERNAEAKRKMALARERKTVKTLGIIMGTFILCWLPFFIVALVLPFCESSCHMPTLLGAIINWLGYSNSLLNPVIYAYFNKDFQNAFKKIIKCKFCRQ
# Serotonin 5-HT1B = biological target: T8, Serotonin 5-HT1B (Rattus norvegicus, UniProt P28564); assay: Off-target screening (Eurofins Cerep), 5-HT1B; type: binding
# T8 construct: Eurofins Cerep SA (contract screening)
# T8 sequence (P28564 whole entry): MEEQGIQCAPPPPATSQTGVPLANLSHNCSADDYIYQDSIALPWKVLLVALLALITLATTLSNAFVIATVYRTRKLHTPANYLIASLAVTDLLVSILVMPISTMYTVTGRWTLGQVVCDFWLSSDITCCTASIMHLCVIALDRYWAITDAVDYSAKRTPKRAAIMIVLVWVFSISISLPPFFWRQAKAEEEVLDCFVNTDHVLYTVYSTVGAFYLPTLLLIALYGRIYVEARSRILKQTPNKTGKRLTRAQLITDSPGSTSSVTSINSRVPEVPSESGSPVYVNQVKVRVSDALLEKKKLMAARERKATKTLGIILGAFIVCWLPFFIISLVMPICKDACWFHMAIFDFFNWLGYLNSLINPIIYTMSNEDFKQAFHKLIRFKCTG
# [3] = biological target: AR (steroid nuclear receptor) (Homo sapiens, UniProt P10275); assay: Off-target screening (Eurofins Cerep), AR; type: binding
# Sequence of AR (steroid nuclear receptor) (P10275 whole entry): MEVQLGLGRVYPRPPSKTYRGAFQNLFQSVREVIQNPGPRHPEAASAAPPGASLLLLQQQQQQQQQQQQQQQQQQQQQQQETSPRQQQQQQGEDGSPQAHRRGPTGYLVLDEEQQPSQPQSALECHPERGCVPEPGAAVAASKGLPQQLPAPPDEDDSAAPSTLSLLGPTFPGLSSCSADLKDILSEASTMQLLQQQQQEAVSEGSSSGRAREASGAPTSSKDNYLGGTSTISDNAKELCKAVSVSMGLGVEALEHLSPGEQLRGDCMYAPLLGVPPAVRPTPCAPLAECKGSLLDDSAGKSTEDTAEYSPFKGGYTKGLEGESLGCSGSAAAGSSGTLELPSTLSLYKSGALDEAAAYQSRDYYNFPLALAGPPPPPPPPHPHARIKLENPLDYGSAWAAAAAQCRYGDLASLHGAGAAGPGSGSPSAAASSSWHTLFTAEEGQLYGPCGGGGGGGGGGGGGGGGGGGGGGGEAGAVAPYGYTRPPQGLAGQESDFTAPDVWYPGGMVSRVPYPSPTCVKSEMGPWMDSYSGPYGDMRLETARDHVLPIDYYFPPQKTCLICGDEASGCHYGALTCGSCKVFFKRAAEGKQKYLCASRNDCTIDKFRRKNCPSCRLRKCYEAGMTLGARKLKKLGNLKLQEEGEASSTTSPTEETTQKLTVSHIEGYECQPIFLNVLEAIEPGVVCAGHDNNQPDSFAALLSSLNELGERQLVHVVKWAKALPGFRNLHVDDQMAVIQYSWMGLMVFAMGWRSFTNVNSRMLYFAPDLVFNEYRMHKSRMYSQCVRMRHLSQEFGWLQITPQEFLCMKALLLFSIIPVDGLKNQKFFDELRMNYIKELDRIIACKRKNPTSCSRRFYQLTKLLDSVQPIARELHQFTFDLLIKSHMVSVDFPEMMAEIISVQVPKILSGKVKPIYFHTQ
# Na+ channel (site 2) = assay: Off-target screening (Eurofins Cerep), Na+ channel; type: binding
# Description: as §1
# Adenosine A2A = biological target: T9, Adenosine A2A (Homo sapiens, UniProt P29274); assay: Off-target screening (Eurofins Cerep), A2A; type: binding
# T9 construct: Eurofins Cerep SA (contract screening)
# [4] = 10 μM, mean of 2, read-out: % of Control Specific Binding Mean
# [5] = read-out: % Inhibition of Control Specific Binding
# [6] = read-out: % of Control Specific Binding Mean
# [7] = 10 μM cRGD-ZW800-1, format H, Ag, performed twice, read-out: % Inhibition of Control Specific Binding
smiles,measurement,setting,value
CC1(C)C(/C=C/C2=C(Oc3ccc(CCC(=O)NCCCC[C@@H]4NC(=O)[C@@H](Cc5ccc(O)cc5)NC(=O)[C@H](CC(=O)O)NC(=O)CNC(=O)[C@H](CCCNC(=N)N)NC4=O)cc3)C(=C/C=C3/N(CCC[N+](C)(C)C)c4ccc(S(=O)(=O)O)cc4C3(C)C)/CCC2)=[N+](CCC[N+](C)(C)C)c2ccc(S(=O)(=O)O)cc21 [cRGD-ZW800-1],TBRs at 4 h post injection,BxPC-3 pancreatic tumors,> 2
same,inhibition at 10 µM,"[1]; 10 μM cRGD-ZW800-1, format H, performed twice, read-out: % Inhibition of Control Specific Binding",28%
same,remaining activity at 10 µM,[1]; [4],72.3%
same,inhibition at 10 µM,Muscarinic M3; [5],-7%
same,remaining activity at 10 µM,Muscarinic M3; [6],107%
same,% Inhibition of Control Specific Binding,Potassium Channel hERG,-6%
same,% of Control Specific Binding 1st,Potassium Channel hERG; 10 µM,106.4%
same,% of Control Specific Binding 2nd,Potassium Channel hERG; 10 µM,104.8%
same,inhibition at 10 µM,PDE4D2; [5],10%
same,remaining activity at 10 µM,PDE4D2; [6],90.3%
same,reduction of fluorescence signal by unlabeled cRGD,U-87 MG cells,36%
same,inhibition at 10 µM,Opioid µ (MOP); [7],10%
same,remaining activity at 10 µM,Opioid µ (MOP); [4],90.3%
same,inhibition at 10 µM,Endothelin ETA; [7],1%
same,remaining activity at 10 µM,Endothelin ETA; [4],98.6%
same,inhibition at 10 µM,[2]; [7],29%
same,remaining activity at 10 µM,[2]; [4],70.9%
same,concentration inside tumors,tumors,approximately 0.2 μM
same,inhibition at 10 µM,Serotonin 5-HT1A; [7],9%
same,remaining activity at 10 µM,Serotonin 5-HT1A; [4],90.9%
same,inhibition at 10 µM,"Serotonin 5-HT1B; 10 μM cRGD-ZW800-1, format An, performed twice, read-out: % Inhibition of Control Specific Binding",1%
same,remaining activity at 10 µM,Serotonin 5-HT1B; [4],99.1%
same,inhibition at 10 µM,[3]; [7],9%
same,remaining activity at 10 µM,[3]; [4],91.4%
same,% Inhibition of Control Specific Binding,"Na+ channel (site 2); 10 μM cRGD-ZW800-1, format An, performed twice",20%
same,% of Control Specific Binding Mean,"Na+ channel (site 2); 10 μM, mean of 2",79.9%
same,inhibition at 10 µM,Adenosine A2A; [7],8%
same,remaining activity at 10 µM,Adenosine A2A; [4],91.9%

# Reference: article PMC5400565, “Real-time near-infrared fluorescence imaging using cRGD-ZW800-1 for intraoperative visualization of multiple cancer types” (Oncotarget, 2017)
